This is an account of results in patent US10501456B2, “Therapeutic agents for the treatment of HBV infection” (Newave Pharmaceutical Inc., priority 2016, dated 2019).

The structures appear in SMILES notation. Structures can show the parent of a compound that is named as a salt.

One series concerns the target hERG (Homo sapiens, UniProt Q12809). Put plainly: hERG assay (automated patch-clamp). The class given is biochemical. Particulars: for IC10 (10% inhibitory concentration, hERG tail current): automated patch-clamp. An excerpt:
The human ether-a-go-go related gene (hERG) encodes the inward rectifying voltage gated potassium channel in the heart (IKr) which is involved in cardiac repolarization. Inhibition of the hERG current causes QT interval prolongation resulting in potentially fatal ventricular tachyarrhythmia called Torsade de Pointes. A number of drugs have been withdrawn from late stage clinical trials due to these cardiotoxic effects, therefore it is important to identify inhibitors early in drug discovery.
The degree of inhibition (%) was obtained by measuring the tail current amplitude, which is induced by a one second test pulse to −40 mV after a two second pulse to +20 mV, before and after drug incubation (the difference current was normalized to control and multiplied by 100 to obtain the percent of inhibition). Concentration (log) response curves were fitted to a logistic equation (three parameters assuming complete block of the current at very high test compound concentrations) to generate estimates of the 10% inhibitory concentration (IC10). The concentration-response relationship of each compound was constructed from the percentage reductions of current amplitude by sequential concentrations.
Background: Block of hERG is tested as a sign of cardiac risk.

The test system of a further series is extracellular HBV DNA. Put plainly: HBV DNA assay (real-time qPCR/TaqMan, HepG2.2.15 cells). The class given is cell-based. Particulars: for EC50: Hepatitis B virus, 144 h, six days, supernatant HBV DNA copy number, read-out: EC50 (reduction in HBV DNA levels). As for the experimental part: The assay employs real-time qPCR (TaqMan) to directly measure extracellular HBV DNA copy number. HepG2.2.15 cells were plated in 96-well microtiter plates. Only the interior wells were utilized to reduce “edge effects” observed during cell culture, the exterior wells were filled with complete medium to help minimize sample evaporation. On the following day, the HepG2.2.15 cells were washed and the medium was replaced with complete medium containing various concentrations of a test compound in triplicate. 3TC was used as the positive control, while media alone was added to cells as a negative control (virus control, VC). Three days later, the culture medium was replaced with fresh medium containing the appropriately diluted drug. Six days following the initial administration of the test compound, the cell culture supernatant was collected, treated with pronase and then used in a real-time qPCR/TaqMan assay to determine HBV DNA copy numbers. TDF (tenofovir disoproxil fumarate) is used as a positive control reference. Antiviral activity was calculated from the reduction in HBV DNA levels (IC50).
(In general: Real-time PCR tracks product formation cycle by cycle.)

Series [1] is described as follows: Compound cytotoxicity assay (CellTiter-Glo). The class given is cell-based. Particulars: human; HepG2.2.15 cells, 4 day incubation, top conc. 150 μM. As for the experimental part: (§1) Compounds are diluted with DMSO in 3-fold, 11-point scheme: top conc. of test compound is 30 mM. Add 0.25 μL titrated compounds with Echo 550 to 384-well cytotoxicity assay plates. Add 50 μl HepG2.2.15 cells to each well (4,000 cells per well). The final top conc. is 150 μM after cell addition. For solvent control well (0% effect, ZPE), 0.25 μL DMSO is added (final DMSO conc. is 0.5%). Incubate for 4 days in 37⊏ C, 5% CO2 incubator. After
(§2) 4 day incubation compound cytotoxicity is measured by Promega CellTiter-Glo reagents, briefly: • Equilibrate the Celltiter-Glo reagent to room temperature • Equilibrate the cytotoxicity plates to RT for 20 minutes. • Add 50 μl of CellTiter-Glo Reagent to each well. • Shake 2 minutes on a shaker. • Incubate at room temperature in dark for 10 minutes. • Read plate on Envision Plate reader (0.1 sec integration time/well)
(§3) Such assays, carried out with a range of doses of test compounds, allow the determination of the cellular IC50 of the compounds of the present invention.
Background: ATP-based viability assays read luminescence as a measure of living cells.

In a further series the test system is HepG2.2.15 cells. Put plainly: Compound cytotoxicity assay (CellTiter-Glo). The class given is cell-based. Particulars: compared with Compound 203 in WO2015113990. As for the experimental part: as §1, §2, §3
The next series is described as follows: Rat PK study. The class given is in vivo, female Sprague-Dawley rats. As to conditions: for AUC(0-t) / Cmax / bioavailability / half-life: female, Sprague-Dawley, plasma, oral dosing; for half-life: read-out: t½ (converted). As for the experimental part: The pharmacokinetics of compounds were evaluated in female Sprague-Dawley rats via Intravenous and Oral Administration. The iv dose was administered as a slow bolus in the Jugular vein, and oral doses were administered by gavage. The fomulaltion for IV dosing is 20% DMSO and 60% PEG 400 in water, and the PO formulation (suspension) is 1% MC, 0.4% Kolliphor EL in water. The PK time point for the IV arm is 5, 15, 30 min, 1, 2, 4, 6, 8, 12, 24 hours post dose, and for PO arm is 15, 30 min, 1, 2, 4, 6, 8, 12, 24 hours post dose. Approximately 0.2 mL blood will be collected at each time point. Blood of each sample will be transferred into plastic micro centrifuge tubes containing EDTA-K2 and collect plasma within 15 min by centrifugation at 4000 g for 5 minutes in a 4° C. centrifuge. Plasma samples will be stored in polypropylene tubes. The samples will be stored in a freezer at −75±15° C. prior to analysis. Concentrations of compounds in the plasma samples will be analyzed using a LC-MS/MS method. WinNonlin (Phoenix™, version 6.1) or other similar software will be used for pharmacokinetic calculations. The following pharmacokinetic parameters will be calculated, whenever possible from the plasma concentration versus time data: IV administration: C0, CL, Vd, T1/2, AUCinf, AUClast, MRT, Number of Points for Regression; PO administration: Cmax, Tmax, T1/2, AUCinf, AUClast, F %, Number of Points for Regression. The pharmacokinetic data will be described using descriptive statistics such as mean, standard deviation. Additional pharmacokinetic or statistical analysis may be performed at the discretion of the contributing scientist, and will be documented in the data summary

Chain of hERG (Q12809 whole entry): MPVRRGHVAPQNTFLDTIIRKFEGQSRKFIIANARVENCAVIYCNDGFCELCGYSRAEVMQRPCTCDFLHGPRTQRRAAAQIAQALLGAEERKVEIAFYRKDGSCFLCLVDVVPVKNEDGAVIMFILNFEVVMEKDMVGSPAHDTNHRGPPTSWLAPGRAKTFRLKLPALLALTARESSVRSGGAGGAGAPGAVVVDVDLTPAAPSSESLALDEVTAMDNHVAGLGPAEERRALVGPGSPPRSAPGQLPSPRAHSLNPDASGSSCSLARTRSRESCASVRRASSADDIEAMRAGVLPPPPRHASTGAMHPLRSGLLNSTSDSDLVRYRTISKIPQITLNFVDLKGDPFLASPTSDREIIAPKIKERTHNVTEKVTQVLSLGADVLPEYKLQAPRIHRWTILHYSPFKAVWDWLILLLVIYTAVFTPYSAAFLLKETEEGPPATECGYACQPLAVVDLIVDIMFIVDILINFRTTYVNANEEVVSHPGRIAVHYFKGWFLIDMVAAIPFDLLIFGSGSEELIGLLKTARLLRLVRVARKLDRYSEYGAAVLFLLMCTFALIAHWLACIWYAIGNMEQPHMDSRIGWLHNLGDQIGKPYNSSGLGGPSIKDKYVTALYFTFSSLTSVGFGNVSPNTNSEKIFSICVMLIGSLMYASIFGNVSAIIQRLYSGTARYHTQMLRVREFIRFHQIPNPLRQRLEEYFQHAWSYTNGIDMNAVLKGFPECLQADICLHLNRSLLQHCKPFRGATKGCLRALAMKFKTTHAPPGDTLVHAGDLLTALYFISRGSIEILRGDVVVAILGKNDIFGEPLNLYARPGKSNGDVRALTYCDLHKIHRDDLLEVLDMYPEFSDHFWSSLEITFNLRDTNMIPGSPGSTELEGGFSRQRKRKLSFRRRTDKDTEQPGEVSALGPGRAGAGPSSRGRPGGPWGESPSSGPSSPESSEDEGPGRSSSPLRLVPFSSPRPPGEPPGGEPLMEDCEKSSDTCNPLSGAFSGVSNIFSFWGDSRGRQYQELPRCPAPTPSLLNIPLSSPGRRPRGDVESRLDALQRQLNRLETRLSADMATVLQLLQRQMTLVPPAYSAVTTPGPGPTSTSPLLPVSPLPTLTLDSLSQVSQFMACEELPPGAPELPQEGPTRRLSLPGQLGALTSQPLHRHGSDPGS

On to `COCCCOc1cc2c(cc1Cl)-c1c(F)c(=O)c(C(=O)O)cn1[C@H](C(C)(C)C)C2` (single isomer, unassigned) [Example 2A, (+)-6-(tert-butyl)-10-chloro-1-fluoro-9-(3-methoxypropoxy)-2-oxo-6,7-dihydro-2H-pyrido[2,1-a]isoquinoline-3-carboxylic acid], for which the “IC10 (10% inhibitory concentration, hERG tail current)” value against hERG was found to be 10000 nM. Further, the “cardiac toxicity (in words)” value at hERG (hERG, compared with Compound 203 in WO2015113990) is “less cardiac toxicity”. Also, the “anti-HBV potency (in words)” value with extracellular HBV DNA (HBV DNA) is on record as “highly potent”. Moreover, the EC50 (usually the concentration giving half of the maximal effect) in the series with extracellular HBV DNA was less than 1 nM. Moreover, the 50% inhibitory concentration (IC50) (as a rule, the midpoint of a concentration-inhibition curve) at 4 days in series [1] is more than 150000 nM. In addition, the “cytotoxicity (in words)” value in the series with HepG2.2.15 cells is recorded as “less cytotoxicity”. Besides, in the series “Rat PK study” (20 mg/kg), the area under the curve AUC(0-t) (usually exposure summed from dosing to a finite time, without extrapolation to infinity) came to 39600 ng·h/mL; the Cmax (in general, the peak of the concentration-time curve) is 7550 ng/mL; the bioavailability (commonly dose-corrected exposure relative to a reference, in per cent) came out at 58.6%; the half-life is 4.47 h. Moreover, the “oral PK profile (in words)” value in the series “Rat PK study” (oral dosing of 20 mg/kg, compared with Compound 203 in WO2015113990) is “better oral PK profile”.

Take `COCCCOc1cc2c(cc1Cl)-c1cc(=O)c(C(=O)O)cn1[C@H](C(C)(C)C)C2` [Compound 203 in WO2015113990, reference compound]: at hERG, the “IC10 (10% inhibitory concentration, hERG tail current)” value came to 1000 nM. Further, the EC50 in the series with extracellular HBV DNA was less than 1 nM. The compound also yielded a half-inhibitory concentration (IC50) at 4 days in series [1] of 120000 nM. Besides, in “Rat PK study” (20 mg/kg), the area under the curve AUC(0-t) is 16700 ng·h/mL, the Cmax is 2470 ng/mL, the bioavailability was determined as 40% and the half-life was 3.73 h.

For `COCCCOc1cc2c(cc1OC)-c1c(F)c(=O)c(C(=O)O)cn1[C@H](C(C)(C)C)C2` [Example 13], in “Rat PK study” (10 mg/kg), the area under the curve AUC(0-t) stood at 5840 ng·h/mL and the bioavailability turned out to be 24.1%.

In the case of `[2H]C([2H])([2H])Oc1cc2c(cc1OCCCOC)C[C@@H](C(C)(C)C)n1cc(C(=O)O)c(=O)c(F)c1-2` [Example 14, (S)-6-(tert-butyl)-1-fluoro-10-(methoxy-d3)-9-(3-methoxypropoxy)-2-oxo-6,7-dihydro-2H-pyrido[2,1-a]isoquinoline-3-carboxylic acid], in the series “Rat PK study” (10 mg/kg), the AUC(0-t) is 9050 ng·h/mL and the bioavailability came to 61.1%. Also, the “oral PK profile (in words)” value in “Rat PK study” (oral dosing of 10 mg/kg, compared with Example 13) is “much better oral PK profile”.

In the case of `CC(C)OC(=O)OCOP(=O)(CO[C@H](C)Cn1cnc2c(N)ncnc21)OCOC(=O)OC(C)C` [Tenofovir Disoproxil Fumarate, tenofovir disoproxil fumarate, reference compound], the EC50 in the series with extracellular HBV DNA was found to be 29.3 nM.
